Test results published in patent publication US20250154105A1, “POLYCYCLIC COMPOUND AND USE THEREOF” (TYK MEDICINES, INC., priority 2021, published 2025).

Tests used:
[1] = test system: human pleural mesothelioma cells NCI-H226; assay: Cell anti-proliferation experiment (CCK8), NCI-H226; format: cell-based
Outline: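 Viability was measured by CCK-8 (3 h, A450) after 3-day treatment with 0.15–333.33 nM compound in 0.1% DMSO medium. Curve-fitted IC50 was based on viability normalised to no-drug and cell-free controls.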

YAP-TEAD = YAP-TEAD inhibitor activity by Nano luciferase method (8xGTiiC-nLuc reporter in 293T cells); format: cell-based; details: Homo sapiens, HEK-293T, 48 hours incubation, read-out: Nano-luciferase detection (IC50)
Outline: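 293T cells transiently transfected with pGL3B-8xGTiiC-nLuc-CMV-fLuc, seeded 2000 cells/well, then treated 48 h at 37 °C with compounds in 1:3.16 dilution series (top 10,000 nM). Nano luciferase signal read after cell lysis; IC50 from percent of 0 nM control.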

SMILES	IC50 [1] [µM]	IC50 (YAP-TEAD) [µM]
C[C@H](NC(=O)c1ccc2c(c1)c1nccnc1c(=O)n2-c1ccc(C(F)(F)F)cc1)c1ccccn1 [Example T-337]	≤ 1	≤ 1
COc1cccnc1[C@@H](C)NC(=O)c1ccc2c(c1)c1nn(C)cc1c(=O)n2-c1ccc(C(F)(F)F)cc1 [Example T-135]	1 to 5	1 to 5
C[C@H](NC(=O)c1ccc2c(c1)c1c(c(=O)n2C2CCC(F)(F)CC2)CCCC1)c1ccccn1 [Example T-267]	≤ 1	≤ 1
C[C@H](NC(=O)c1ccc2c(c1)c1ncccc1c(=O)n2-c1ccc(C(F)(F)F)cc1)c1cccc(N)n1 [Example T-419]	≤ 1	≤ 1
C[C@H](NC(=O)c1ccc2c(c1)c1cscc1c(=O)n2-c1ccc(C(F)(F)F)nc1)c1ccccn1 [Example T-264]	≤ 1	≤ 1
C[C@@H](NC(=O)c1ccc2c(ccc(=O)n2-c2ccc(C(F)(F)F)cc2)c1)c1ccccn1 [Example T-24]	1 to 5	1 to 5
C[C@H](NC(=O)c1cnc2c(c1)c1ccccc1c(=O)n2-c1ccc(C(F)(F)F)cc1)c1ccccn1 [Example T-244]	≤ 1	≤ 1
Cn1cc2c(=O)n(-c3ccc(C(F)(F)F)cc3)c3ccc(NC(N)=O)cc3c2n1 [Example T-183]	≤ 1	≤ 1
COCC(C)NC(=O)c1ccc2c(c1)c1nn(C)cc1c(=O)n2-c1ccc(C(F)(F)F)cc1 (stereo not drawn) [Example T-107]	≤ 1	≤ 1
CNS(=O)(=O)c1ccc2c(c1)c1nn(C)cc1c(=O)n2-c1cccc(F)c1 [Example T-72]	≤ 1	≤ 1
CNc1cccc([C@H](C)NC(=O)c2ccc3c(ccc(=O)n3-c3ccc(C(F)(F)F)cc3)c2)n1 [Example T-430]	≤ 1	≤ 1
Cn1cc2c(=O)n(-c3ccc(C(F)(F)F)cc3)c3ccc(NC(=O)c4ccccc4)cc3c2n1 [Example T-171]	≤ 1	≤ 1
CNS(=O)(=O)c1ccc2c(c1)c1ncn(CCO)c1c(=O)n2-c1ccc(C(F)(F)F)cc1 [Example T-46]	≤ 1	≤ 1
Cn1cc2c(=O)n(-c3ccc(C(F)(F)F)cc3)c3ccc(NC(=O)/C=C/CN4CCCC4)cc3c2n1 [Example T-179]	≤ 1	≤ 1
Cn1cc2c(=O)n(-c3ccc(C(F)(F)F)cc3)c3ccc(C(=O)NC4CC4)cc3c2n1 [Example T-102]	≤ 1	≤ 1
C[C@H](NC(=O)c1ccc2c(c1)c1nn(C)cc1c(=O)n2-c1ccc(C(F)(F)F)cc1)c1cccc(C#N)n1 [Example T-152]	≤ 1	≤ 1
C[C@H](NC(=O)c1cnc2c(c1)c1nscc1c(=O)n2-c1ccc(C(F)(F)F)cc1)c1cccc(N)n1 [Example T-409]	≤ 1	≤ 1
Cc1cc(=O)n(-c2ccc(C(F)(F)F)cc2)c2ncc(C(=O)N[C@@H](C)c3cccc(N)n3)cc12 [Example T-457]	≤ 1	≤ 1
C[C@H](NS(=O)(=O)c1ccc2c(c1)c1nn(C)cc1c(=O)n2-c1ccc(C(F)(F)F)cc1)c1ccccc1 [Example T-165]	1 to 5	1 to 5

SMILES	IC50 [1] [µM]	IC50 (YAP-TEAD) [µM]
C[C@@H]1CCc2c1c(=O)n(-c1ccc(C(F)(F)F)cc1)c1ccc(C(=O)N[C@@H](C)c3ccccn3)cc21 [Example T-446]	≤ 1	≤ 1
C[C@H](NC(=O)c1ccc2c(c1)c1nnccc1c(=O)n2-c1ccc(C(F)(F)F)cc1)c1ccccn1 [Example T-334]	≤ 1	≤ 1
CCOC(=O)Nc1ccc2c(c1)c1nn(C)cc1c(=O)n2-c1ccc(C(F)(F)F)cc1 [Example T-193]	≤ 1	≤ 1
C[C@H](C(=O)Nc1ccc2c(c1)c1nn(C)cc1c(=O)n2-c1ccc(C(F)(F)F)cc1)c1ccccn1 [Example T-169]	1 to 5	1 to 5
CNS(=O)(=O)c1ccc2c(c1)c1nc[nH]c1c(=O)n2-c1ccc(C(F)(F)F)cc1 [Example T-33]	≤ 1	≤ 1
Cn1cc2c(=O)n(-c3ccc(C(F)(F)F)cc3)c3ccc(C(=O)NCc4cnccn4)cc3c2n1 [Example T-140]	1 to 5	1 to 5
C[C@H](NC(=O)c1ccc2c(c1)c1c(F)scc1c(=O)n2-c1ccc(C(F)(F)F)cc1)c1ccccn1 [Example T-298]	≤ 1	≤ 1
C[C@@H](NC(=O)c1ccc2c(c1)c1cscc1c(=O)n2-c1ccc(C(F)(F)F)cc1)c1cccc(N)n1 [Example T-397]	≤ 1	≤ 1
CNS(=O)(=O)c1ccc2c(c1)c1cn(CCOC)nc1c(=O)n2-c1ccc(C(F)(F)F)cc1 [Example T-45]	≤ 1	≤ 1
CC#CC(=O)Nc1ccc2c(c1)c1nn(C)cc1c(=O)n2-c1ccc(C(F)(F)F)cc1 [Example T-238]	≤ 1	≤ 1
CN(C)Cc1cccc(NC(=O)c2ccc3c(c2)c2nn(C)cc2c(=O)n3-c2ccc(C(F)(F)F)cc2)c1 [Example T-115]	1 to 5	1 to 5
C#CC(=O)Nc1ccc2c(c1)c1nn(C)cc1c(=O)n2-c1ccc(C(F)(F)F)cc1 [Example T-237]	≤ 1	≤ 1
Cc1occ2c1c(=O)n(-c1ccc(C(F)(F)F)cc1)c1ncc(C(=O)N[C@@H](C)c3ccccn3)cc21 [Example T-376]	≤ 1	≤ 1
CNS(=O)(=O)c1ccc2c(c1)-c1cn(C)nc1CN2c1ccc(C(F)(F)F)cc1 [Example T-19]	≤ 1	≤ 1
C[C@H](NS(=O)(=O)c1ccc2c(c1)c1nn(C)cc1c(=O)n2-c1ccc(OC(F)(F)F)cc1)c1ccccn1 [Example T-167]	1 to 5	1 to 5
Cn1cc2c(=O)n(-c3ccc(C(F)(F)F)cc3)c3ccc(C(=O)Nc4c[nH]cn4)cc3c2n1 [Example T-121]	1 to 5	1 to 5
C[C@H](NC(=O)c1cnc2c(c1)c1cscc1c(=O)n2-c1ccc(C(F)(F)F)cc1)c1cccc(N)n1 [Example T-454]	≤ 1	≤ 1
CNS(=O)(=O)c1ccc2c(c1)c1cn(C)nc1c(=O)n2-c1ccc(F)c(F)c1 [Example T-66]	≤ 1	≤ 1
C[C@H](NC(=O)c1ccc2c(c1)c1cccnc1c(=O)n2-c1ccc(C(F)(F)F)cc1)c1ccccn1 [Example T-254]	≤ 1	≤ 1

SMILES	IC50 [1] [µM]	IC50 (YAP-TEAD) [µM]
Cc1ccc2c(=O)n(-c3ccc(C(F)(F)F)cc3)c3ccc(C(=O)N[C@@H](C)c4ccccn4)cc3c2c1 [Example T-255]	≤ 1	≤ 1
CNS(=O)(=O)c1ccc2c(c1)c1nn(C)cc1c(=O)n2-c1cc(F)cc(F)c1 [Example T-322]	≤ 1	≤ 1
C[C@H](NC(=O)c1ccc2c(c1)c1c(c(=O)n2-c2ccc(C(F)(F)F)cc2)CCC1)c1cccc(N)n1 [Example T-425]	≤ 1	≤ 1
C[C@H](NC(=O)c1ccc2c(c1)c1ocnc1c(=O)n2-c1ccc(C(F)(F)F)cc1)c1ccccn1 [Example T-391]	≤ 1	≤ 1
CC(C)/C=C/C(=O)Nc1ccc2c(c1)c1nn(C)cc1c(=O)n2-c1ccc(C(F)(F)F)cc1 [Example T-233]	≤ 1	≤ 1
CNS(=O)(=O)c1ccc2c(c1)-c1nn(C)cc1CN2c1ccc(C(F)(F)F)cc1 [Example T-18]	≤ 1	≤ 1
COc1ccnc([C@@H](C)NC(=O)c2ccc3c(c2)c2nn(C)cc2c(=O)n3-c2ccc(C(F)(F)F)cc2)c1 [Example T-136]	1 to 5	1 to 5
C[C@H](NC(=O)c1ccc2c(c1)c1c(c(=O)n2-c2ccc(C(F)(F)F)cc2)CC(F)C1)c1ccccn1 (stereo partly drawn) [Example T-291]	≤ 1	≤ 1
C[C@H](NC(=O)c1ccc2c(c1)c1c(c(=O)n2-c2ccc(C(F)(F)F)cc2)CCC(F)(F)C1)c1ccccn1 [Example T-307]	≤ 1	≤ 1
C[C@H](NC(=O)c1ccc2c(c1)c1c(c(=O)n2-c2ccc(C(F)(F)F)nc2)CCC1)c1ccccn1 [Example T-262]	≤ 1	≤ 1
COc1ccc2c(=O)n(-c3ccc(C(F)(F)F)cc3)c3ccc(C(=O)N[C@@H](C)c4ccccn4)cc3c2c1 [Example T-315]	≤ 1	≤ 1
Cn1cc2c(=O)n(-c3ccc(C(F)(F)F)cc3)c3ccc(C(N)=O)cc3c2n1 [Example T-114]	≤ 1	1 to 5
COC[C@@H](C)NC(=O)c1ccc2c(c1)c1cnccc1c(=O)n2-c1ccc(C(F)(F)F)cc1 [Example T-448]	1 to 5	1 to 5
C[C@@H](NC(=O)c1ccc2c(c1)c1nn(C)cc1c(=O)n2-c1ccc(C(F)(F)F)cc1)c1ncccc1F [Example T-125]	1 to 5	1 to 5
C[C@H](NC(=O)c1ccc2c(c1)c1c(C#N)cccc1c(=O)n2-c1ccc(C(F)(F)F)cc1)c1ccccn1 [Example T-318]	≤ 1	≤ 1
C[C@H](NC(=O)c1cnc2c(c1)c1sc(Cl)c(Br)c1c(=O)n2-c1ccc(C(F)(F)F)cc1)c1ccccn1 [Example T-405]	≤ 1	≤ 1
Cn1cc2c(=O)n(-c3ccc(C(F)(F)F)cc3)c3ccc(C(=O)NC(C)(C)C)cc3c2n1 [Example T-101]	≤ 1	≤ 1
Cc1cccc([C@H](C)NC(=O)c2ccc3c(c2)c2nn(C)cc2c(=O)n3-c2ccc(C(F)(F)F)cc2)n1 [Example T-151]	≤ 1	≤ 1
C[C@H](NC(=O)c1ccc2c(c1)c1c(c(=O)n2-c2ccc(C(F)(F)F)cc2)CCCC1F)c1ccccn1 (stereo partly drawn) [Example T-302]	≤ 1	≤ 1
